{"source": "paper PMC11864979", "about": "“First-in-class ultralong-target-residence-time p38α inhibitors as a mitosis-targeted therapy for colorectal cancer” (Nature Cancer, 2025)", "assay_in_all_cases": "selectivity profiling in a panel of 340 wild-type kinases (Reaction Biology Europe)", "assay_type_in_all_cases": "binding", "key": {"[1]": {"target": "T1, 340 wild-type kinases (Homo sapiens, UniProt Q6XUX3)", "T1 construct": "purchased Reaction Biology Europe", "T1 sequence (Q6XUX3 1-929)": "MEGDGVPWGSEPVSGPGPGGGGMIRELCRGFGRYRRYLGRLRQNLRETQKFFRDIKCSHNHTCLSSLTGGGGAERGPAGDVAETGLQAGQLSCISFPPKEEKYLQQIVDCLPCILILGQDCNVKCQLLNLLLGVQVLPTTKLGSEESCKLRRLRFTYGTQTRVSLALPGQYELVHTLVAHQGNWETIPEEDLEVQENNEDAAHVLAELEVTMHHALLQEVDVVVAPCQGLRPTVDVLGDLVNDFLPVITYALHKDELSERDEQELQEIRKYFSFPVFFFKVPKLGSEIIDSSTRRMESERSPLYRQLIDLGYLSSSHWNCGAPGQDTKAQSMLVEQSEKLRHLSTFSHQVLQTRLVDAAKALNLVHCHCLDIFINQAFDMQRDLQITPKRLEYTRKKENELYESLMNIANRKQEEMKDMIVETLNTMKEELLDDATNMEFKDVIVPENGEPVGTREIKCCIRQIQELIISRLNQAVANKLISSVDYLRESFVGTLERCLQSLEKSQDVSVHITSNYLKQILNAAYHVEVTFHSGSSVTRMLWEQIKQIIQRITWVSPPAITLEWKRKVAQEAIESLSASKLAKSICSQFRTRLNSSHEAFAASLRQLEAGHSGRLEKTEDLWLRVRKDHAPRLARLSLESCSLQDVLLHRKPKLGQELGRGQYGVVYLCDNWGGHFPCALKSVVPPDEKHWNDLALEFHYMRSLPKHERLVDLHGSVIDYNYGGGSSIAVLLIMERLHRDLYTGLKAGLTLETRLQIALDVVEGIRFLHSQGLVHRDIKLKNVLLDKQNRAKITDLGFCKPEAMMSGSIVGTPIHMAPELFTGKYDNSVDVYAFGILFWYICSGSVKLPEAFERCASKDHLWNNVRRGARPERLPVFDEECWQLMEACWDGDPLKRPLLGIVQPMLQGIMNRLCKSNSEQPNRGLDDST"}, "[2]": {"target": "T2, 340 wild-type kinases (Homo sapiens, UniProt Q05513)", "T2 construct": "purchased Reaction Biology Europe", "T2 sequence (Q05513 184-592)": "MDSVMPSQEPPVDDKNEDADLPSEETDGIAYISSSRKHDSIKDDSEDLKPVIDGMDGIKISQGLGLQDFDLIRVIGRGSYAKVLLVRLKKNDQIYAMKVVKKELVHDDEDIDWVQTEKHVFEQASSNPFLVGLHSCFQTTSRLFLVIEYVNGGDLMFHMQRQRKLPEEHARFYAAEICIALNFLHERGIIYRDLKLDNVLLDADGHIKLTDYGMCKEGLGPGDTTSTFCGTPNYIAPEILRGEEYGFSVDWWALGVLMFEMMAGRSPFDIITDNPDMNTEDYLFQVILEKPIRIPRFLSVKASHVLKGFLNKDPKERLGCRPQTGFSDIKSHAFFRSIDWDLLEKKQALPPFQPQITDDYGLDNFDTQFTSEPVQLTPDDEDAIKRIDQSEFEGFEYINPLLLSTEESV", "conditions": "PKMzeta, read-out: residual activity"}, "[3]": {"target": "T3, 340 wild-type kinases (Homo sapiens, UniProt P42684)", "T3 construct": "purchased Reaction Biology Europe", "T3 sequence (P42684 whole entry)": "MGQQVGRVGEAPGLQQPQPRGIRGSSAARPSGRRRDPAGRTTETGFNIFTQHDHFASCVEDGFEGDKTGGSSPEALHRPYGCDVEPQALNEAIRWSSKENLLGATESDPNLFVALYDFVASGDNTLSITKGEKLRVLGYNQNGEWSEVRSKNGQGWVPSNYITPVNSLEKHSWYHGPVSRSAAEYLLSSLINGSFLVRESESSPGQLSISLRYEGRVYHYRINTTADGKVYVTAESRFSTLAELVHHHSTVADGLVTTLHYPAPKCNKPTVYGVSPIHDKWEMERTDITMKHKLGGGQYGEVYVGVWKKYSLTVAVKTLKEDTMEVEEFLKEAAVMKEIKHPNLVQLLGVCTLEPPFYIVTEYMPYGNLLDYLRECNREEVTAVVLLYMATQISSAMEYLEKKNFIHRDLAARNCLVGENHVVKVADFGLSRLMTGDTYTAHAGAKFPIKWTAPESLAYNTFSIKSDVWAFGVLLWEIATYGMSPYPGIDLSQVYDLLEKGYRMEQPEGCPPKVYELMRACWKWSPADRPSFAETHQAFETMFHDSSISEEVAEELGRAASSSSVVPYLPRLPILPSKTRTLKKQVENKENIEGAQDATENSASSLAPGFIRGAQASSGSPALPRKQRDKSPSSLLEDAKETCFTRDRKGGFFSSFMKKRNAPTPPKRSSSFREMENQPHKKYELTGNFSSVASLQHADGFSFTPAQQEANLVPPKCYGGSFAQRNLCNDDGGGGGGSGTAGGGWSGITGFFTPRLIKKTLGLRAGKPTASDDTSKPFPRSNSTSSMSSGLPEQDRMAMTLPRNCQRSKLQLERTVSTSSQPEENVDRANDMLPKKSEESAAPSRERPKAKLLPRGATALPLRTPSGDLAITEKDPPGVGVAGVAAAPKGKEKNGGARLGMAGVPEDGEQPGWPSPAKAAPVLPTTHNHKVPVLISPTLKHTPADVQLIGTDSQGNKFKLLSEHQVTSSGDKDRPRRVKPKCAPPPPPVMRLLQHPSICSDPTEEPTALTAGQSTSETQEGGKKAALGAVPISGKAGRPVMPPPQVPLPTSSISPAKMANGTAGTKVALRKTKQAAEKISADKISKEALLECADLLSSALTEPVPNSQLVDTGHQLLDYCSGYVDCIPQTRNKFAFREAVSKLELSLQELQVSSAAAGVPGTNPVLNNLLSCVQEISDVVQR"}, "[4]": {"target": "T4, 340 wild-type kinases (Homo sapiens, UniProt Q86Z02)", "T4 construct": "purchased Reaction Biology Europe"}, "[5]": {"target": "T5, 340 wild-type kinases (Homo sapiens, UniProt Q8IZL9)", "T5 construct": "purchased Reaction Biology Europe", "T5 sequence (Q8IZL9 whole entry)": "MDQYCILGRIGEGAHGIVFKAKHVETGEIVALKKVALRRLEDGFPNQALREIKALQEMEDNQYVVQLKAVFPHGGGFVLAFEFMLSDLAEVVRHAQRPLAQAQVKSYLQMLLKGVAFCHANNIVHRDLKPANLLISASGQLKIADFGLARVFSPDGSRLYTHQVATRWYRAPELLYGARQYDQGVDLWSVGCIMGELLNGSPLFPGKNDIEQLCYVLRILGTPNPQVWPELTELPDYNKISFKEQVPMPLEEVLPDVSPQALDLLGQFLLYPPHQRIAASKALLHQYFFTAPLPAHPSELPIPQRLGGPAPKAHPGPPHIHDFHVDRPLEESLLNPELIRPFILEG"}, "[6]": {"target": "T6, 340 wild-type kinases (Homo sapiens, UniProt Q32MK0)", "T6 construct": "purchased Reaction Biology Europe", "T6 sequence (Q32MK0 1-819)": "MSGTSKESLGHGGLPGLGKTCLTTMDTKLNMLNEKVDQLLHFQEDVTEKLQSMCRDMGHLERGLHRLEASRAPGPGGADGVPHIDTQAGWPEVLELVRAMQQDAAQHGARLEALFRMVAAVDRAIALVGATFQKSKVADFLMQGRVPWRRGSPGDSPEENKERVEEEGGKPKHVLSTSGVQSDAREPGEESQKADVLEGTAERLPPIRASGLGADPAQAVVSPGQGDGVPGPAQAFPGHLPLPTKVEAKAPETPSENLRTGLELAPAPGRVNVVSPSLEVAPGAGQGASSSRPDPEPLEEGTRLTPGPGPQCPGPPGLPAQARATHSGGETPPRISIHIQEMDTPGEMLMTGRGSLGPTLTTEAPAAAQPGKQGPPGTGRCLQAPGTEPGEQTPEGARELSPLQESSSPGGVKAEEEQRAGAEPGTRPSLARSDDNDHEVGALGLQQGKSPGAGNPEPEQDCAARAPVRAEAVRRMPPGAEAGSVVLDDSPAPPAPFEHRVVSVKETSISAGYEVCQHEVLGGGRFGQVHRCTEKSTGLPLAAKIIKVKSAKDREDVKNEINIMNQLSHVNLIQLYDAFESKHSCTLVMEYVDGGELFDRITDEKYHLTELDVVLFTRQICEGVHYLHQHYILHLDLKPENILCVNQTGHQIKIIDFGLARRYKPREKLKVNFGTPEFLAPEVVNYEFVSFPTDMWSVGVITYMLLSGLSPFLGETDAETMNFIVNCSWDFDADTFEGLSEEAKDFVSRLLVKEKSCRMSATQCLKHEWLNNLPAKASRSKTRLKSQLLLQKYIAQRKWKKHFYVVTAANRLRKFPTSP"}, "[7]": {"target": "T7, 340 wild-type kinases (Homo sapiens, UniProt P07948)", "T7 construct": "purchased Reaction Biology Europe", "T7 sequence (P07948 whole entry)": "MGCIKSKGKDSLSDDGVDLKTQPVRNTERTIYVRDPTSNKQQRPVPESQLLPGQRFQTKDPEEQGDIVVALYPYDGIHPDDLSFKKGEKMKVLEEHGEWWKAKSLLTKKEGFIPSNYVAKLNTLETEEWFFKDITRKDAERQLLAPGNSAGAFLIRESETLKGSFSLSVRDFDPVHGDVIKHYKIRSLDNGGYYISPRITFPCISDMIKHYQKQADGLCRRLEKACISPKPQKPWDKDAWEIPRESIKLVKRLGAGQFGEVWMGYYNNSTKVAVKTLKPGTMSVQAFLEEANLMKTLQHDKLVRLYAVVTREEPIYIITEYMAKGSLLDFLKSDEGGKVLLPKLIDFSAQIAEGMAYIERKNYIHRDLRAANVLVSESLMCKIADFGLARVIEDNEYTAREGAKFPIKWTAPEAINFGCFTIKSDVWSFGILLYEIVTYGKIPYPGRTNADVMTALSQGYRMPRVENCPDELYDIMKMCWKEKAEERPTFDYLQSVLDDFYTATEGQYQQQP"}, "[8]": {"target": "T8, 340 wild-type kinases (Homo sapiens, UniProt P09619)", "T8 construct": "purchased Reaction Biology Europe", "T8 sequence (P09619 33-1106)": "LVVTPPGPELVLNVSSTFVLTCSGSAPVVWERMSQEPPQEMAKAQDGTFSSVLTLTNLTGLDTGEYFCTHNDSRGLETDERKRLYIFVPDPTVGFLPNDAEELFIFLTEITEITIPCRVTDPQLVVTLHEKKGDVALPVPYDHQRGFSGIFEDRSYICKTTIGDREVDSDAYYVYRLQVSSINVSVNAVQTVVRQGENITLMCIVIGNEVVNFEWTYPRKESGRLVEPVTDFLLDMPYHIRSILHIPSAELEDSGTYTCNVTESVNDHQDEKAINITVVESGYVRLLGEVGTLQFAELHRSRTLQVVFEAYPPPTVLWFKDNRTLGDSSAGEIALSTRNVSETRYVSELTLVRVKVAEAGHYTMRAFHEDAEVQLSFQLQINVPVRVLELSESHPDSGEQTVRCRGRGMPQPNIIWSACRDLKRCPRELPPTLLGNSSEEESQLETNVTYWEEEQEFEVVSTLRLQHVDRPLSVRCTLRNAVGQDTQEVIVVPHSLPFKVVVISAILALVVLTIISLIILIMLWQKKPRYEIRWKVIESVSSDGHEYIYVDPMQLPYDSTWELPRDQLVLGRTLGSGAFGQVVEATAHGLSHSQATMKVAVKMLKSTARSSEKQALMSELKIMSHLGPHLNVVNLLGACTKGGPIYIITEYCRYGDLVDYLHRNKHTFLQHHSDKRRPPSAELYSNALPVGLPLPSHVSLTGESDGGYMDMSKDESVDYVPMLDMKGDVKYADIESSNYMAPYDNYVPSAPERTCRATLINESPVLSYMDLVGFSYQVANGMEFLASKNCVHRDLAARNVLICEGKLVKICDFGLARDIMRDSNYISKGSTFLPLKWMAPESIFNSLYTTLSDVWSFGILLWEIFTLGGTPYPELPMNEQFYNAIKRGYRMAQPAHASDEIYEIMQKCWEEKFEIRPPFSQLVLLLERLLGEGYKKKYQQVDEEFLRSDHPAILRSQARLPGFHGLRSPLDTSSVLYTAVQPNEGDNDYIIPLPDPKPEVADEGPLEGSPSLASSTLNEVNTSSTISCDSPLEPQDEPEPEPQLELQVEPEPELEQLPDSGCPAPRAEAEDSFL"}, "[9]": {"target": "T9, 340 wild-type kinases (Homo sapiens, UniProt P53350)", "T9 construct": "purchased Reaction Biology Europe", "T9 sequence (P53350 whole entry)": "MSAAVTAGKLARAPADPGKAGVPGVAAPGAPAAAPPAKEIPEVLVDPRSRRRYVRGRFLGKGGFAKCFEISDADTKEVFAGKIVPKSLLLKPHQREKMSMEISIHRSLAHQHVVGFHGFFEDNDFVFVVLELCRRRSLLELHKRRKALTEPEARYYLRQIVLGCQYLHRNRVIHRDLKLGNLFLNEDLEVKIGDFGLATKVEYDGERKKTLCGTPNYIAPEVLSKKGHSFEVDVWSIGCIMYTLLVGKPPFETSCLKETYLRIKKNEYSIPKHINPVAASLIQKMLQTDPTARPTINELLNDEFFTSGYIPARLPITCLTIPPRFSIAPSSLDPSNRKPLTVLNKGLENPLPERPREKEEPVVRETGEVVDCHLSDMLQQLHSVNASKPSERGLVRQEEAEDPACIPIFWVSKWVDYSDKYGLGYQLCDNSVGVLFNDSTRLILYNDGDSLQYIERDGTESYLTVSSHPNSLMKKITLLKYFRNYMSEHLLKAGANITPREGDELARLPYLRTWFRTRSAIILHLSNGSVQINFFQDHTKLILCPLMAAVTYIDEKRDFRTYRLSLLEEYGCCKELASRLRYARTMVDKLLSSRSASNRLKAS"}, "[10]": {"target": "T10, 340 wild-type kinases (Homo sapiens, UniProt Q13131)", "T10 construct": "purchased Reaction Biology Europe", "T10 sequence (Q13131 whole entry)": "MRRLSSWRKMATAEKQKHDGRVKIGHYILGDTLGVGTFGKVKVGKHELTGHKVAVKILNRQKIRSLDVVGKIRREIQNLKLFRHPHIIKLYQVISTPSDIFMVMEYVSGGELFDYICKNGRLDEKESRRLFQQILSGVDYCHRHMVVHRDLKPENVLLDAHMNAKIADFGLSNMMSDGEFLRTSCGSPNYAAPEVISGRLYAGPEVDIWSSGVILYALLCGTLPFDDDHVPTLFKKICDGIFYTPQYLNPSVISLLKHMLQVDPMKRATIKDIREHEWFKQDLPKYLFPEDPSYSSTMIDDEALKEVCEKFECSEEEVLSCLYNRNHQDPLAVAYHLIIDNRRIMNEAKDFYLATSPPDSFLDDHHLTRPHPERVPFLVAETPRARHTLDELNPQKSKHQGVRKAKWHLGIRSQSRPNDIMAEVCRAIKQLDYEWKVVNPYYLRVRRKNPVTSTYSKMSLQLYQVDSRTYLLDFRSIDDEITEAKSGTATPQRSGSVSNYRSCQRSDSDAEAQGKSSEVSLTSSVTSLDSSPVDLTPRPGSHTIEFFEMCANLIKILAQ"}}, "note": "Like-named read-outs stand apart in the source and are kept apart here."}
{"smiles": "CNC(=O)c1ccc2c(c1)C(=O)c1ccc(Nc3ccc(F)c(NC(=O)C4CC4)c3)cc1CC2", "note": "[Compound 2015]", "values": [{"measurement": "remaining activity at 0.2 µM", "setting": "[1]; 0.2 µM 2015, read-out: RIPK5 residual activity", "value": 92.4, "unit": "%"}, {"measurement": "remaining activity at 1 µM", "setting": "[1]; 1 µM 2015, read-out: RIPK5 residual activity", "value": 88.1, "unit": "%"}, {"measurement": "remaining activity at 0.2 µM", "setting": "[1]; RIPK5, 0.2 µM, read-out: residual activity", "value": 92.4, "unit": "%"}, {"measurement": "remaining activity at 1 µM", "setting": "[1]; RIPK5, 1 µM, read-out: residual activity", "value": 88.1, "unit": "%"}, {"measurement": "remaining activity at 0.2 µM", "setting": "[2]; 0.2 µM", "value": 106, "unit": "%"}, {"measurement": "remaining activity at 1 µM", "setting": "[2]; 1 µM", "value": 102, "unit": "%"}, {"measurement": "remaining activity at 0.2 µM", "setting": "[3]; 0.2 µM 2015, read-out: ABL2 residual activity", "value": 107, "unit": "%"}, {"measurement": "remaining activity at 1 µM", "setting": "[3]; 1 µM 2015, read-out: ABL2 residual activity", "value": 102, "unit": "%"}, {"measurement": "remaining activity at 0.2 µM", "setting": "[3]; ABL2, 0.2 µM, read-out: residual activity", "value": 107, "unit": "%"}, {"measurement": "remaining activity at 1 µM", "setting": "[3]; ABL2, 1 µM, read-out: residual activity", "value": 102, "unit": "%"}, {"measurement": "remaining activity at 0.2 µM", "setting": "[4]; 0.2 µM 2015, read-out: HIPK1 residual activity", "value": 98.9, "unit": "%"}, {"measurement": "remaining activity at 1 µM", "setting": "[4]; 1 µM 2015, read-out: HIPK1 residual activity", "value": 102, "unit": "%"}, {"measurement": "remaining activity at 0.2 µM", "setting": "[4]; HIPK1, 0.2 µM, read-out: residual activity", "value": 98.9, "unit": "%"}, {"measurement": "remaining activity at 1 µM", "setting": "[4]; HIPK1, 1 µM, read-out: residual activity", "value": 102, "unit": "%"}, {"measurement": "remaining activity at 0.2 µM", "setting": "[5]; 0.2 µM 2015, read-out: CDK20/CycH residual activity", "value": 107, "unit": "%"}, {"measurement": "remaining activity at 0.2 µM", "setting": "[5]; 0.2 µM 2015, read-out: CDK20/CycT1 residual activity", "value": 103, "unit": "%"}, {"measurement": "remaining activity at 1 µM", "setting": "[5]; 1 µM 2015, read-out: CDK20/CycH residual activity", "value": 97.2, "unit": "%"}, {"measurement": "remaining activity at 1 µM", "setting": "[5]; 1 µM 2015, read-out: CDK20/CycT1 residual activity", "value": 96.3, "unit": "%"}, {"measurement": "remaining activity at 0.2 µM", "setting": "[5]; CDK20/CycH, 0.2 µM, read-out: residual activity", "value": 107, "unit": "%"}, {"measurement": "remaining activity at 1 µM", "setting": "[5]; CDK20/CycH, 1 µM, read-out: residual activity", "value": 97.2, "unit": "%"}, {"measurement": "remaining activity at 0.2 µM", "setting": "[5]; CDK20/CycT1, 0.2 µM, read-out: residual activity", "value": 103, "unit": "%"}, {"measurement": "remaining activity at 1 µM", "setting": "[5]; CDK20/CycT1, 1 µM, read-out: residual activity", "value": 96.3, "unit": "%"}, {"measurement": "remaining activity at 0.2 µM", "setting": "[6]; 0.2 µM 2015, read-out: MYLK3 residual activity", "value": 106, "unit": "%"}, {"measurement": "remaining activity at 1 µM", "setting": "[6]; 1 µM 2015, read-out: MYLK3 residual activity", "value": 93.5, "unit": "%"}, {"measurement": "remaining activity at 0.2 µM", "setting": "[6]; MYLK3, 0.2 µM, read-out: residual activity", "value": 106, "unit": "%"}, {"measurement": "remaining activity at 1 µM", "setting": "[6]; MYLK3, 1 µM, read-out: residual activity", "value": 93.5, "unit": "%"}, {"measurement": "remaining activity at 0.2 µM", "setting": "[7]; 0.2 µM 2015, read-out: LYN residual activity", "value": 109, "unit": "%"}, {"measurement": "remaining activity at 1 µM", "setting": "[7]; 1 µM 2015, read-out: LYN residual activity", "value": 82.5, "unit": "%"}, {"measurement": "remaining activity at 0.2 µM", "setting": "[7]; LYN, 0.2 µM, read-out: residual activity", "value": 109, "unit": "%"}, {"measurement": "remaining activity at 1 µM", "setting": "[7]; LYN, 1 µM, read-out: residual activity", "value": 82.5, "unit": "%"}, {"measurement": "remaining activity at 0.2 µM", "setting": "[8]; 0.2 µM 2015, read-out: PDGFRbeta residual activity", "value": 101, "unit": "%"}, {"measurement": "remaining activity at 1 µM", "setting": "[8]; 1 µM 2015, read-out: PDGFRbeta residual activity", "value": 101, "unit": "%"}, {"measurement": "remaining activity at 0.2 µM", "setting": "[8]; PDGFRbeta, 0.2 µM, read-out: residual activity", "value": 101, "unit": "%"}, {"measurement": "remaining activity at 1 µM", "setting": "[8]; PDGFRbeta, 1 µM, read-out: residual activity", "value": 101, "unit": "%"}, {"measurement": "remaining activity at 0.2 µM", "setting": "[9]; 0.2 µM 2015, read-out: PLK1 residual activity", "value": 94.2, "unit": "%"}, {"measurement": "remaining activity at 1 µM", "setting": "[9]; 1 µM 2015, read-out: PLK1 residual activity", "value": 96.3, "unit": "%"}, {"measurement": "remaining activity at 0.2 µM", "setting": "[9]; PLK1, 0.2 µM, read-out: residual activity", "value": 94.2, "unit": "%"}, {"measurement": "remaining activity at 1 µM", "setting": "[9]; PLK1, 1 µM, read-out: residual activity", "value": 96.3, "unit": "%"}, {"measurement": "remaining activity at 0.2 µM", "setting": "[10]; 0.2 µM 2015, read-out: AMPKalpha1 residual activity", "value": 91.7, "unit": "%"}, {"measurement": "remaining activity at 1 µM", "setting": "[10]; 1 µM 2015, read-out: AMPKalpha1 residual activity", "value": 101, "unit": "%"}, {"measurement": "remaining activity at 0.2 µM", "setting": "[10]; AMPKalpha1, 0.2 µM, read-out: residual activity", "value": 91.8, "unit": "%"}, {"measurement": "remaining activity at 1 µM", "setting": "[10]; AMPKalpha1, 1 µM, read-out: residual activity", "value": 101, "unit": "%"}]}
